# Columns and labels:
# [1] = background statement, cited from earlier work; for satisfaction and 'throat-hit' sensation: novel tobacco products; for satisfaction in oral and nasal products: novel oral and nasal nicotine products
# rats [2] = settings: acute oral
# in vivo = settings: rat, po
# [3] = Chemical stability in air / exposure to atmosphere for 24 hours, discoloration, blending; type: physicochemical
# [4] = Solubility in appropriate solvents; type: physicochemical; settings: in the appropriate solvents
# mice [5] = settings: mouse, in vivo
# mice [6] = settings: comparison value; cited from earlier work
# rats [7] = settings: comparison value; cited from earlier work
smiles,measurement,setting,value
CN1CCCC1c1cccnc1 (racemic) [racemic nicotine],satisfaction and 'throat-hit' sensation,[1],does not induce the distinctive satisfaction and ‘throat-hit’ sensation
"Cc1ccc([C@H]2CCCN2C)cn1 [(R)-6-Methylnicotine, reference compound]",efficacy as nicotine analogue and flavor,"enantiomer, no test described","not effective as a nicotine analogue, and contributes to unpleasant flavors"
Cc1ccc([C@@H]2CCCN2C)cn1.O=C(O)c1ccccc1 [(S)-6-Methylnicotine benzoate],reduction in toxicity versus nicotine on an equivalent effective use basis,rats [2]; equivalent effective use basis,2 order of magnitude
same,toxicity relative to nicotine,rats [2]; versus nicotine,half to one quarter as toxic
same,LD50,in vivo,120 to 215 mg/kg
"Cc1ccc([C@@H]2CCCN2C)cn1 [(S)-6-Methylnicotine, (S)-2-methyl-5-(1-methylpyrrolidin-2-yl)pyridine]",chemical stability compared to nicotine,[3]; degradation and discoloration,"more chemically stable than nicotine, and resists degradation and discoloration"
same,lifetime in the air relative to nicotine,"[3]; in the air, versus nicotine, may potentially",≤ 5 times
same,stability when blended with other compounds,"[3]; versus nicotine, blended with other compounds",more stable than nicotine when blended with other compounds
same,resistance to higher temperatures,"[3]; versus nicotine, may",may be able to resist higher temperatures
same,solubility,[4],acceptable for all of the aforementioned applications
same,relief from cravings / subjective hit sensation,in words,induces a subjective “hit” sensation which satisfies cravings
same,onset of action compared to nicotine,"preliminary, versus nicotine",may be faster acting
same,reduction of oral toxicity versus nicotine,mice [5],~3 order of magnitude
same,"toxicity compared to nicotine, in words",mice [5]; po,"both less toxic, and can be used in lower amounts than nicotine"
COC(=O)C1=CCCN(C)C1 [arecoline],satisfaction in oral and nasal products,[1],limited satisfaction due to a lack of satisfactory sensations
same,satisfaction and 'throat-hit' sensation,[1],lack of satisfaction and ‘throat-hit’ sensation
O=c1cccc2n1C[C@@H]1CNC[C@H]2C1 [cytisine],satisfaction in oral and nasal products,[1],limited satisfaction due to a lack of satisfactory sensations
same,satisfaction and 'throat-hit' sensation,[1],lack of satisfaction and ‘throat-hit’ sensation
CN1CCCC1c1cccnc1 (stereo not drawn) [nicotine],yellowing on exposure to atmosphere,[3]; exposed to atmosphere for 24 hours,yellowing was observed sooner than (S)-6-Methylnicotine
same,acute oral LD50 of nicotine,mice [6],about 3.3 mg/kg BW
same,acute oral LD50 of nicotine,rats [7],50 mg/kg
